Assays:
Arabidopsis roots = settings: kinetin applied during infection; Agrobacterium tzs mutant; Hwang et al., 2010; cited from earlier work
[1] = tested on: Arabidopsis root segments; settings: Col-0 and Bl-1 root segments, 24 h, 1.4 μM trans-zeatin
Procedure: Root segments of Arabidopsis Bl-1 and MTF-RNAi lines were incubated with A. tumefaciens A208 containing pJZ383 (Ptac::GFP). Root segments were co-cultivated with 10^5 cfu/mL (ecotype Columbia) or 10^8 cfu/mL (ecotype Bl-1) for 24 h in B5 minimal medium. Root segments were rinsed and visualized by epifluorescence microscopy.
Agrobacterium attachment assays were conducted as described herein. Col-0 and Bl-1 root segments were co-cultivated with A281 at 10^6 or 10^8 cfu/mL, respectively, for 24 h in the presence or absence of 1.4 μM trans-zeatin.

[2] = tested on: Arabidopsis root segments; settings: A. tumefaciens A348 or A281 (no TZS), 1.4 or 14 μM trans-zeatin
Procedure: Neither of these strains harbors TZS. Trans-zeatin concentrations representing the range secreted by nopaline-type A. tumefaciens strains were used.
A. tumefaciens was cultured in Yeast Extract-Peptone medium (Lichtenstein et al., 1986) containing the appropriate antibiotics. Root transformation assays were carried out as previously described by Nam et al. with minor modifications (Tenea et al., 2009). MS basal medium lacking phytohormones was used to select for tumors. GUS activity assays were carried out after infection of root segments with A. tumefaciens At849 (Narasimhulu et al., 1996) for 4-6 d, using X-gluc (Jefferson et al., 1987).
(§1) Roots were infected with bacteria at 10^6 cfu/mL (Col-0) or 10^8 cfu/mL (Bl-1). Following infection, root segments were either transferred to MS basal medium containing 100 μg/mL Timentin and incubated for 4-5 weeks before recording the percentage of root segments developing tumors, or used for RNA isolation.

MTF = settings: Col-0 and Bl-1 root segments treated for two days with trans-zeatin
Procedure: Real-time RT-PCR was carried out using total RNA isolated in triplicate from roots of plants grown in liquid B5 medium. PCR was performed in triplicate on an ABI Prism 7500 Sequence Detection System (Applied Biosystems, Foster City, Calif.). Expression levels were calculated by the relative standard curve method (Applied Biosystems) for all transcripts except ORA59, where the comparative cycle threshold method (Applied Biosystems) was used, and normalized to Actin2 transcript levels.
as §1

Compound	susceptibility of roots to transformation (Arabidopsis roots)	attachment of A. tumefaciens A281 [1]	increase in transformation efficiency ([2]; Col-0 roots, percentage of root segments developing tumors)	increase in susceptibility ([2]; ecotype Bl-1 roots)	decrease of MTF transcript levels (MTF)
c1coc(CNc2ncnc3[nH]cnc23)c1 [kinetin]	increased the susceptibility	–	–	–	–
C/C(=C\CNc1ncnc2nc[nH]c12)CO [trans-zeatin]	–	increased attachment	4-8 fold	2-3 fold	30-60%
